From patent US20230029496A1, “AMINO ACID ALTERNATIVE CURING SYSTEM” (THE TEXAS A&M UNIVERSITY SYSTEM, priority 2019, published 2023)
Values joined by “and” are separate entries in the source; they are usually repeats but may differ in a detail not shown here. Equal values may be shown once. “Also recorded” adds a separate entry of the source. Read-outs that look alike come from different tables or passages of the source. Marks after values point to notes of the source that are not given here.

Experiments:
[1] = system: eNOS system
Experimental: Two (N=2) of these pork loins were cut into four sections (˜1 kg; 8 pieces total) and weighed prior to injection with the test brine solution (Table 8). Initial muscle pH was prior to injection before injection (10, 15, 20 or 25%) as well as brine pH was measured (Table 9). The test brine was manufactured for a targeted 25% injection level (Table 8) and was prepared on the day of manufacture to simulate a commercial ham cure containing water, sodium tri-polyphosphate, salt (NaCl), L-arginine, sodium erythorbate (NaE) and sugar. […] Brine percentages were calculated to simulate ingoing arginine of test tube trials (5569 ingoing arginine, 547 ppm NaE, 0.9% NaCl).
Samples were weighed before and after injection to ensure pickup percentage as close to the target weights of 10, 15, 20, and 25% pickup. Samples were vacuum packaged and held for two hours before thermal processing to simulate previous laboratory test tube trials.
After cooking and stabilization at room temperature, loin sections were sliced perpendicular to the long axis of the muscle fibers to determine if any nitrosylation (nitric oxide (NO) bound to myoglobin) occurred, resulting in the characteristic cured (pink) color. […] Based on an ingoing L-arginine brine concentration of 5545 ppm, there would be approximately 554, 830 and 1110 and 1385 ppm of ingoing L-arginine at 10, 15, 20 and 25% injection levels, respectively.

[2] = system: NOS system; assay: NO-heme, total heme, nitrosylation and cured color in test tube pork loin sausages (Example 11)
Description: Pork loins from a local meat distributor were procured on Mar. 18, 2019 and tested four weeks later on Apr. 18, 2019. A total of nine pounds of pork loins were split into thirds and ground through kidney, ½″, and ¼″ plates to make a restructured ham sausages formulated (Table 14) to contain either 1000 or 5000 ppm L-arginine which were stuffed in 2″ plastic casings and thermally processed. Three pounds of each grind size (9 pound batch) were mixed with high (5000 ppm), low (1000 ppm), or control (0 ppm) concentrations of brine at 25% addition using a Kitchen aid mixer. It was decided to lower the concentration of the L-arginine from 1500 ppm (Test 3) to 1000 ppm (Test 4) to verify that this concentration can generate acceptable levels of NO to develop cured color and residual nitrite for antioxidant and antimicrobial properties. Control and treatment met batches were stuffed in plastic casings in triplicate for each high, low, and control concentrations in one pound portions. […] The samples were tested for residual nitrite and nitroso-hemochromagen pigment (Table 14) one day after thermal processing cooking (April 19th to April 20th), then eight days after thermal processing on April 26th to determine any cure color fading and residual nitrite.

[3] = system: nitric oxide synthase system; assay: Residual nitrite equivalency scale, key findings across all species (Example 26)
[4] = system: Nitric Oxide Synthase (NOS) system; assay: Residual nitrite in plastic casing test tube ground pork loin sausages (Example 10); details: for Nitrite Pellet / Nitrite Supernatant: cooked
Experimental: (§1) The desired cured color could not initially be generated in a variety of processed meat products in a pilot plant setting. […] Pork loins (N=2) procured from a local meat distributor (Mar. 18, 2019) were used. Eight pounds of pork loins were ground (½″ then ¼″ plate) and weighed out in one pound portions. Plastic waterproof casings (2″ diameter) were clipped at one end. One pound of ground pork loin was placed in the casing and two pounds of brine (L-arginine concentration 7498 ppm) were added and the open end of the casing clipped. Based on laboratory test tube studies, meat samples would absorb 20-25% of the solution which equates to absorption of approximately 1500 ppm of L-arginine. Each plastic casing contained the same proportion of meat and brine as conducted during previous laboratory experiments (Table 12). A control was manufactured by substituting distilled water for the L-arginine brine.
(§2) After thermal processing the plastic casing test tubes were cut open and emptied into beakers, then separated into residue (meat particles) and supernatant (liquid) via paper filtration into 50 mL conical tubes for collection and subsequent analysis for residual nitrite (supernatant) and cured pigment formation/nitrosylation (meat residue).
(§3) Nitrosylation and residual nitrite analyses was performed under reduced light to avoid loss of pigmentation. L-arginine treated test tube pork sausage averaged 53.12 to 72.30 ppm of residual nitrite in the cooked meat pellet with percent nitrosylation ranging from 33 to 60 percent (Table 13). The brine was formulated to deliver 1500 ppm ingoing L-arginine at 25% absorption into the meat after two hours of immersion in the brine solution.

[5] = system: eNOS system; assay: Whole muscle injection or immersion of pork loin/tenderloin with L-arginine test brine without phosphate (Example 9): pH and cured color
Experimental: Two (N=2) pork loins were procured from the same batch previously described (Mar. 18, 2019 pack date). […] Initial muscle pH was prior to and after injection/immersion and the brine pH was measured as well (Table 11). […] No sodium tri-polyphosphate was added to the brine, only water, salt, arginine, and sodium erythorbate in the same concentration/percentage used for prior benchtop laboratory tests. […] Phosphate was eliminated from the test brine to decrease pH to increase the likelihood of the L-arginine activating the eNOS system found within the meat.
Four (N=4) tenderloins fabricated from four pork loins (Mar. 18, 2019 pack date) were subjected to immersion curing by placing them into the remaining (leftover) test brine (no injection) for approximately 18 hr. were immersed in the remaining brine to simulate previous test tube trials.
After thermal processing, each sample was sliced to determine if any nitrosylation or cure color formation occurred. […] Even though phosphate was not included in the formulation the brine pH was still high. […] It appears that the concentration of L-arginine and the high brine pH may not be at the right amount/level to achieve the desired cured meat reaction. Based on these product failures, it was decided to go back to use the original protocol used in laboratory testing—but use a waterproof sausage casings to create a “pilot plant tube” to make sure the results seen in the laboratory could be replicated in a pilot plant setting.

[6] = pH after immersion, pre- and post-rigor pork semimembranosus muscle (Example 13); assay type: physicochemical
[7] = system: Nitric Oxide Synthase (NOS) system; assay: NO-heme, total heme, nitrosylation in plastic casing test tube ground pork loin sausages (Example 10); details: for Nitrosylation / NO-Heme / Total Heme: cooked; for NO-Heme / Total Heme: ppm acid hematin
Experimental: as §1, §2, §3

[8] = Low (1000 ppm) L-arginine, 8 days post thermal processing
[9] = Low (1000 ppm) L-arginine, one day after thermal processing

## N=C(N)NCCC[C@H](N)C(=O)O [L-arginine]
[1]; 10% injection of test brine (Table 8)
  Injected Loin pH: 7.15 and 7.12
[1]; 15% injection of test brine (Table 8)
  Injected Loin pH: 7.09 and 7.08
[1]; 20% injection of test brine (Table 8)
  Injected Loin pH: 7.03 and 7.14
[1]; 25% injection of test brine (Table 8)
  Injected Loin pH: 7.18 and 7.09
[1]; after injection of test brine with sodium tri-polyphosphate
  increase of muscle pH: ~2.0 pH units
[1]; pork loin sections injected 10, 15, 20 or 25%, held two hours, cooked to 145° F.
  cured color formation after cooking: no observable cured color formation
[1]; test brine of Table 8: L-arginine 5545.41 ppm, with sodium tri-polyphosphate, salt, sugar, sodium erythorbate
  Brine pH: 10.55
[2]; High (5000 ppm) L-arginine, one day after thermal processing
  Total Heme: 22.21^a ppm
[2]; [8]
  NO-Heme: 12.95^a ppm
  Nitrosylation: 45.28^a %
[2]; [9]
  NO-Heme: 8.21^a ppm
  Total Heme: 22.21^a ppm
[2]; from the low to high concentrations, one day after thermal processing
  nitrosylation percentage: 37 to 60%
[2]; high concentration (5000 ppm) L-arginine
  cured color (FIG. 8): pink cured color formation
[2]; low concentration (1000 ppm) L-arginine
  cured color (FIG. 8): slight cured color
[3]; L-arginine 1000, 2000 and 3000 ppm, with sodium erythorbate, except poultry at 200 ppm sodium nitrite
  residual nitrite values compared to sodium nitrite concentrations of 120, 156 and 200 ppm: comparable
[3]; L-arginine 4000 and 5000 ppm, with sodium erythorbate
  residual nitrite values compared to lower L-arginine concentrations: lower residual nitrite values
[3]; no cure accelerator (sodium erythorbate) included
  residual nitrite values compared to sodium nitrite treated samples: consistently lower; also recorded: lower residual nitrite values
[4]; 10% L-arginine brine (formulated for 1500 ppm L-arginine)
  Nitrite Pellet: 72.31^a ppm
[4]; 10% L-arginine brine
  Nitrite Supernatant: 33.48^a ppm
[4]; 15% L-arginine brine (formulated for 1500 ppm L-arginine)
  Nitrite Pellet: 53.12^ab ppm
[4]; 15% L-arginine brine
  Nitrite Supernatant: 36.50^a ppm
[4]; 20% L-arginine brine (formulated for 1500 ppm L-arginine)
  Nitrite Pellet: 59.52^ab ppm
[4]; 20% L-arginine brine
  Nitrite Supernatant: 40.80^a ppm
[4]; 25% L-arginine brine (formulated for 1500 ppm L-arginine)
  Nitrite Pellet: 59.63^ab ppm
[4]; 25% L-arginine brine
  Nitrite Supernatant: 35.34^a ppm
[4]; range of averages over brine additions 10-25%
  residual nitrite in the cooked meat pellet: 53.12 to 72.30 ppm
[5]; injected loin sections and immersion cured tenderloins, cooked to 145° F.
  nitrosylation or cure color formation after thermal processing: no color change
[5]; loin, 10% injection of test brine (Table 10)
  End pH: 5.56
[5]; loin, 15% injection of test brine (Table 10)
  End pH: 5.60
[5]; loin, 20% injection of test brine (Table 10)
  End pH: 5.62
[5]; loin, 25% injection of test brine (Table 10)
  End pH: 6.51
[5]; tenderloin, immersion in test brine (Table 10) approximately 18 hr
  End pH: 6.10 and 6.15 and 6.13 and 6.12
[5]; test brine of Table 10: L-arginine 5574.90 ppm, no phosphate
  Brine pH: 10.79
[6]; 2 mM L-arginine, post rigor cooked
  pH after 2 hours of sample immersion: 5.77^a
[6]; 2 mM L-arginine, post rigor raw
  pH after 2 hours of sample immersion: 5.52^a
[6]; 2 mM L-arginine, pre-rigor cooked
  pH after 2 hours of sample immersion: 6.03^a
[6]; 2 mM L-arginine, pre-rigor raw
  pH after 2 hours of sample immersion: 5.94^a
[6]; 4 mM L-arginine, post rigor cooked
  pH after 2 hours of sample immersion: 5.75^a
[6]; 4 mM L-arginine, post rigor raw
  pH after 2 hours of sample immersion: 5.52^a
[6]; 4 mM L-arginine, pre-rigor cooked
  pH after 2 hours of sample immersion: 6.01^a
[6]; 4 mM L-arginine, pre-rigor raw
  pH after 2 hours of sample immersion: 6.04^a
[6]; 8 mM L-arginine, post rigor cooked
  pH after 2 hours of sample immersion: 5.66^a
[6]; 8 mM L-arginine, post rigor raw
  pH after 2 hours of sample immersion: 5.53^a
[6]; 8 mM L-arginine, pre-rigor cooked
  pH after 2 hours of sample immersion: 5.99^a
[6]; 8 mM L-arginine, pre-rigor raw
  pH after 2 hours of sample immersion: 5.93^a
[6]; 16 mM L-arginine, post rigor cooked
  pH after 2 hours of sample immersion: 5.75^a
[6]; 16 mM L-arginine, post rigor raw
  pH after 2 hours of sample immersion: 5.53^a
[6]; 16 mM L-arginine, pre-rigor cooked
  pH after 2 hours of sample immersion: 6.00^a
[6]; 16 mM L-arginine, pre-rigor raw
  pH after 2 hours of sample immersion: 5.91^a
[6]; 32 mM L-arginine, post rigor cooked
  pH after 2 hours of sample immersion: 5.76^a
[6]; 32 mM L-arginine, post rigor raw
  pH after 2 hours of sample immersion: 5.56^a
[6]; 32 mM L-arginine, pre-rigor cooked
  pH after 2 hours of sample immersion: 5.97^a
[6]; 32 mM L-arginine, pre-rigor raw
  pH after 2 hours of sample immersion: 5.93^a
[6]; range over pre- and post-rigor, raw and cooked, 0-32 mM
  sample pH after the immersion phase: 5.51-6.04
[7]; 10% L-arginine brine
  Nitrosylation: 33.71^ab %
  NO-Heme: 7.63^bc ppm
  Total Heme: 22.66^a ppm
[7]; 15% L-arginine brine
  Nitrosylation: 45.19^a %
  NO-Heme: 8.70^b ppm
  Total Heme: 19.26^a ppm
[7]; 20% L-arginine brine
  Nitrosylation: 36.99^ab %
  NO-Heme: 8.31^b ppm
  Total Heme: 22.66^a ppm
[7]; 25% L-arginine brine
  Nitrosylation: 60.13^a %
  NO-Heme: 16.24^a ppm
  Total Heme: 28.56^a ppm
[7]; range over brine additions 10-25%
  percent nitrosylation: 33 to 60%
